Experimental data taken from patent US20220340597A1, “HEXAHYDRO-1H-PYRAZINO[1,2-A]PYRAZINE COMPOUNDS FOR THE TREATMENT OF AUTOIMMUNE DISEASE” (Hoffmann-La Roche Inc., priority 2019, published 2022).

Columns and labels:
[1] = target: T1, human TLR9 (Homo sapiens, UniProt Q9NR96); experiment: HEK293-Blue-hTLR-9 cells assay; format: cell-based; conditions: HEK293-Blue-hTLR9 cells, ODN2006 stimulation, 20 hrs, SEAP reporter; read-out: HEK/hTLR9 IC50
T1 construct: host or cells: HEK293 (HEK-Blue hTLR9)
T1 sequence (Q9NR96 26-1032): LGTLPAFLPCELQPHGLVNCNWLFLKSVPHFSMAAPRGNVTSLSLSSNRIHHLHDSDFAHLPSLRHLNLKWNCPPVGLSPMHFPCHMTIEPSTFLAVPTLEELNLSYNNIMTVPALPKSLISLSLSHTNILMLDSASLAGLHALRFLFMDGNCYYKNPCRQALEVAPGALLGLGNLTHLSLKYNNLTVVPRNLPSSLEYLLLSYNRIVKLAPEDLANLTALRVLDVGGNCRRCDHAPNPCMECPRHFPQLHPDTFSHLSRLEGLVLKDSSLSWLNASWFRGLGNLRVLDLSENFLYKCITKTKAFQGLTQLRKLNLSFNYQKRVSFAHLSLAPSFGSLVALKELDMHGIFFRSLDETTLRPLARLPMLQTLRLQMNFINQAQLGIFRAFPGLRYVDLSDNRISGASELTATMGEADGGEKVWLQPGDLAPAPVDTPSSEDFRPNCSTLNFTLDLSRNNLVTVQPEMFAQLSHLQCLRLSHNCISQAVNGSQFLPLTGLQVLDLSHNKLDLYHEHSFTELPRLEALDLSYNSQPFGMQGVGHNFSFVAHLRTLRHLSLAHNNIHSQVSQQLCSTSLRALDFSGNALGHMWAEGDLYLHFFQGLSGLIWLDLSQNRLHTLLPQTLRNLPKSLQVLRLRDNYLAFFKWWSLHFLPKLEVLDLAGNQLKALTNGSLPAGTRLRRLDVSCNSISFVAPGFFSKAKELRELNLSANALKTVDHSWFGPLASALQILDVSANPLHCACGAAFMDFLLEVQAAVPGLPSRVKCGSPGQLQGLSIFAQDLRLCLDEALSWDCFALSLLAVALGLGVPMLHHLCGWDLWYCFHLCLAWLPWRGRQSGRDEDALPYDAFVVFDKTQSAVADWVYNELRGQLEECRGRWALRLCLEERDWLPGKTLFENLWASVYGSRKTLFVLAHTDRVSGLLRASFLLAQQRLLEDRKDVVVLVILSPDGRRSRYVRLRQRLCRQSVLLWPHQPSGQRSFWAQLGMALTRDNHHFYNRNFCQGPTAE

[2] = target: T2, human TLR8 (Homo sapiens, UniProt Q9NR97); experiment: HEK293-Blue-hTLR-8 cells assay
T2 sequence (Q9NR97 27-1041): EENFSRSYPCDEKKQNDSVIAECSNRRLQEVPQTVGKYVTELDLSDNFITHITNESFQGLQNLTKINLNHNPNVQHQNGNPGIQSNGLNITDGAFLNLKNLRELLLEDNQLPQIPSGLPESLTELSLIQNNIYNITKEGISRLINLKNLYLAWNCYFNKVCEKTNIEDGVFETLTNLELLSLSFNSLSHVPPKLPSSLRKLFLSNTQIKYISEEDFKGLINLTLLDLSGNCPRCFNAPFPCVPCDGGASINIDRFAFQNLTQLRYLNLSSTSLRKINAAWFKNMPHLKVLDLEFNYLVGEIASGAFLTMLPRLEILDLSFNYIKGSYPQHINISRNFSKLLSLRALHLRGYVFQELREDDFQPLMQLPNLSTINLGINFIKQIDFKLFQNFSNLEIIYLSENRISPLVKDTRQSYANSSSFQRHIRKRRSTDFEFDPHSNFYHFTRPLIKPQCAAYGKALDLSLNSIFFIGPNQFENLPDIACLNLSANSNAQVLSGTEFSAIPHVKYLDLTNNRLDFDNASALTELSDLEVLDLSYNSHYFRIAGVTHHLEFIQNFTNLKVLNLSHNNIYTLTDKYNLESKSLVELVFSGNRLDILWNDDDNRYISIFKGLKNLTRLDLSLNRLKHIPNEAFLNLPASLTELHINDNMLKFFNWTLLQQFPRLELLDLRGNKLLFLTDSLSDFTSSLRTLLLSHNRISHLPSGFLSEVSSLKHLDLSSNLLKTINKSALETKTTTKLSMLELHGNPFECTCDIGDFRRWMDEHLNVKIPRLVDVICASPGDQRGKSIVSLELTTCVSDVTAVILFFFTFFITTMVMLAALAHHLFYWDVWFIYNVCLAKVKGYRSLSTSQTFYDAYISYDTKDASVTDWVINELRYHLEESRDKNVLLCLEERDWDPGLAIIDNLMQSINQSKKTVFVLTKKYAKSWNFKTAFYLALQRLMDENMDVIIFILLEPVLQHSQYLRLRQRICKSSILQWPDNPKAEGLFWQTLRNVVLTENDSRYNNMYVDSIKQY
Procedure: The following tests were carried out in order to determine the activity of the compounds of formula (I) and (Ia) in HEK293-Blue-hTLR-7/8/9 cells assay.
HEK293-Blue-hTLR-8 Cells Assay:
A stable HEK293-Blue-hTLR-8 cell line was purchased from InvivoGen (Cat. #: hkb-htlr8, San Diego, Calif., USA). These cells were originally designed for studying the stimulation of human TLR8 by monitoring the activation of NF-κB. A SEAP (secreted embryonic alkaline phosphatase) reporter gene was placed under the control of the IFN-β minimal promoter fused to five NF-κB and AP-1-binding sites. The SEAP was induced by activating NF-κB and AP-1 via stimulating HEK-Blue hTLR8 cells with TLR8 ligands. Therefore, the reporter expression was declined by TLR8 antagonist under the stimulation of a ligand, such as R848, for incubation of 20 hrs. The cell culture supernatant SEAP reporter activity was determined using QUANTI-Blue™ kit (Cat. #: rep-qb1, Invivogen, San Diego, Calif., USA) at a wavelength of 640 nm, a detection medium that turns purple or blue in the presence of alkaline phosphatase.

Structure (SMILES) | IC50 [1] | IC50 [2]
[2H]c1ccc2c(N3C[C@@H]4CN(CCc5ccnc(N6C[C@@H](N)[C@@H](F)C6)c5)CCN4[C@H](C)C3)ccc(C#N)c2n1 [Example 89, 5-[(4R,9aS)-8-[2-[2-[(3R,4S)-3-amino-4-fluoro-pyrrolidin-1-yl]-4-pyridyl]ethyl]-4-methyl-3,4,6,7,9,9a-hexahydro-1H-pyrazino[1,2-a]pyrazin-2-yl]-2-deuterio-quinoline-8-carbonitrile] | 47 nM | 44 nM
[2H]c1ccc2c(N3C[C@@H]4CN(Cc5ccc(N6C[C@@H]7C[C@H]6CN7)nc5C)CCN4[C@H](C)C3)ccc(C#N)c2n1 [Example 92, 5-[(4R,9aS)-8-[[6-[(1S,4S)-2,5-diazabicyclo[2.2.1]heptan-2-yl]-2-methyl-3-pyridyl]methyl]-4-methyl-3,4,6,7,9,9a-hexahydro-1H-pyrazino[1,2-a]pyrazin-2-yl]-2-deuterio-quinoline-8-carbonitrile] | 34 nM | 9 nM
[2H]c1ccc2c(N3C[C@@H]4CN(c5ncc(N6C[C@@H](N)[C@H](OC)C6)cc5C)CCN4[C@H](C)C3)ccc(C#N)c2n1 [Example 99, 5-[(4R,9aR)-8-[5-[(3R,4R)-3-amino-4-methoxy-pyrrolidin-1-yl]-3-methyl-2-pyridyl]-4-methyl-3,4,6,7,9,9a-hexahydro-1H-pyrazino[1,2-a]pyrazin-2-yl]-2-deuterio-quinoline-8-carbonitrile] | 155 nM | 2 nM
[2H]c1ccc2c(N3C[C@@H]4CN(c5ncc(N6CC[C@@](C)(N)C6)cc5C)CCN4[C@H](C)C3)ccc(C#N)c2n1 [Example 97, 5-[(4R,9aR)-8-[5-[(3R)-3-amino-3-methyl-pyrrolidin-1-yl]-3-methyl-2-pyridyl]-4-methyl-3,4,6,7,9,9a-hexahydro-1H-pyrazino[1,2-a]pyrazin-2-yl]-2-deuterio-quinoline-8-carbonitrile] | 140 nM | 4 nM
[2H]c1ccc2c(N3C[C@@H]4CN(Cc5ccc(N6CC7CNCC(C6)O7)nc5C)CCN4[C@H](C)C3)ccc(C#N)c2n1 [Example 83, 5-[(4R,9aS)-4-methyl-8-[[2-methyl-6-(9-oxa-3,7-diazabicyclo[3.3.1]nonan-3-yl)-3-pyridyl]methyl]-3,4,6,7,9,9a-hexahydro-1H-pyrazino[1,2-a]pyrazin-2-yl]-2-deuterio-quinoline-8-carbonitrile] | 51 nM | 7 nM
C[C@@H]1CN(c2ccc(C#N)c3ncccc23)C[C@@H]2CN(Cc3ccnc(N4CCNCC4)c3)CCN21 (relative stereo) [Example 3] | 110 nM | 12 nM
[2H]c1ccc2c(N3C[C@@H]4CN(CCc5ccc(N6CC[C@@](C)(N)C6)nc5)CCN4[C@H](C)C3)ccc(C#N)c2n1 [Example 84, 5-[(4R,9aS)-8-[2-[6-[(3R)-3-amino-3-methyl-pyrrolidin-1-yl]-3-pyridyl]ethyl]-4-methyl-3,4,6,7,9,9a-hexahydro-1H-pyrazino[1,2-a]pyrazin-2-yl]-2-deuterio-quinoline-8-carbonitrile] | < 32 nM | 19 nM
Cc1nc(N2CCNC[C@@H]2C)ccc1CN1CCN2[C@@H](C1)CN(c1ccc(C#N)c3ncccc13)C[C@H]2C [Example 85, 5-[(4R,9aS)-4-methyl-8-[[2-methyl-6-[(2S)-2-methylpiperazin-1-yl]-3-pyridyl]methyl]-3,4,6,7,9,9a-hexahydro-1H-pyrazino[1,2-a]pyrazin-2-yl]quinoline-8-carbonitrile] | 97 nM | 10 nM
